Measurements taken from patent US20090062294A1, “HETEROARYL-SUBSTITUTED UREA MODULATORS OF FATTY ACID AMIDE HYDROLASE” (priority 2007, published 2009).
Where a name gives a salt, the structure may show the parent alone.

Key:
FAAH = target: T1, FAAH (Homo sapiens, UniProt O00519); experiment: Assay Method 1: FAAH assay, 3H-anandamide hydrolysis in homogenate of T84 cells or SK-N-MC cells transfected with human FAAH; format: biochemical; settings: average of results, > = solubility limit or highest concentration tested
T1 sequence (O00519 1-579): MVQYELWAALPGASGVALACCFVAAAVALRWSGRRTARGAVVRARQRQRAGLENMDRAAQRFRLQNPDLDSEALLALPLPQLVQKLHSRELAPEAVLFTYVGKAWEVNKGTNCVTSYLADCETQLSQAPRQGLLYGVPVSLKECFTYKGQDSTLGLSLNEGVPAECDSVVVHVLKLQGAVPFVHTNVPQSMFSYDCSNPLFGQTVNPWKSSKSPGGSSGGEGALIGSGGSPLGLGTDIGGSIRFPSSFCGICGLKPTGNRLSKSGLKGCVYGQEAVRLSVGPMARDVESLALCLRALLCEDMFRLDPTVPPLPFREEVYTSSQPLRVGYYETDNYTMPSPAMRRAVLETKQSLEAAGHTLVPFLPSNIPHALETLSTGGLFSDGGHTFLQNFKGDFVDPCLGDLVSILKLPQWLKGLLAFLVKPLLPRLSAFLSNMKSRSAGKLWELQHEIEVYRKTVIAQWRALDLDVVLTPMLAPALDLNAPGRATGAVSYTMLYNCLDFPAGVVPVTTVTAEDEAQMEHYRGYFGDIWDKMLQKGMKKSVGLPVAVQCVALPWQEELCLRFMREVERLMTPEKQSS
Summary of the method: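 Homogenates of T84 cells or of SK-N-MC cells stably transfected with human FAAH (G418-selected) were prepared in pH 9 Tris/EDTA/glycerol/Triton buffer. They were incubated with compound and 80 nM final ^3H-anandamide for 1 h at rt. Released ^3H-ethanolamine was separated on activated charcoal and counted by scintillation.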

rat FAAH = target: T2, rat FAAH (Rattus norvegicus, UniProt P97612); experiment: Assay Method 2: FAAH assay, 3H-anandamide hydrolysis in homogenate of SK-N-MC cells transfected with rat FAAH; format: biochemical; settings: average of results, > = solubility limit or highest concentration tested
T2 sequence (P97612 1-579): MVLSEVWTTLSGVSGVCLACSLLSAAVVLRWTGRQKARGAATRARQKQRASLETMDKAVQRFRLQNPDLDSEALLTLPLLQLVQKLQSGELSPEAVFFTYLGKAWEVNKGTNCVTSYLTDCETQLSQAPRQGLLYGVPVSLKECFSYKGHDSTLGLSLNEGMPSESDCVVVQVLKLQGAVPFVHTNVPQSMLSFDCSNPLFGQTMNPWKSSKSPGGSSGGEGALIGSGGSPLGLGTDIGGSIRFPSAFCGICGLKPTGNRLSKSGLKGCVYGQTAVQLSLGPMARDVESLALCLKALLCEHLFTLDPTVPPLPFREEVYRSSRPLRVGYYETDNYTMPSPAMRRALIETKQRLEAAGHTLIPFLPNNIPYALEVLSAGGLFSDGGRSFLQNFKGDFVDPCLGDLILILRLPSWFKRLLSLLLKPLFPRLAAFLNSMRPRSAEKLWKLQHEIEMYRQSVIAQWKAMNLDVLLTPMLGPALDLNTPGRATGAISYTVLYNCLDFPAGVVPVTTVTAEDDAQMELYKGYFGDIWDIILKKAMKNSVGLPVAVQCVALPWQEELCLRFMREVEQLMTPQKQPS
Summary of the method: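 Homogenate of SK-N-MC cells stably transfected with rat FAAH cDNA (G418-selected clones) in pH 9 Tris/EDTA/glycerol/Triton buffer. Incubated with compound and 80 nM final [3H]-anandamide for 1 h at rt. Released [3H]-ethanolamine separated from substrate on activated charcoal filters and counted by scintillation.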

Row | Compound | IC50 (FAAH) [nM] | IC50 (rat FAAH) [nM]
1 | O=C(Nc1cnccn1)N1CCN(Cc2cccc(Oc3ccc4c(c3)OC(F)(F)O4)c2)CC1 [Example 237, 4-{3-[(2,2-Difluoro-1,3-benzodioxol-5-yl)oxy]benzyl}-N-pyrazin-2-ylpiperazine-1-carboxamide] | 5 | 30
2 | O=C(Nc1cnccn1)N1CCN(Cc2cccc(Oc3ccc(S(=O)(=O)C(F)(F)F)cc3)c2)CC1 [Example 226, N-Pyrazin-2-yl-4-(3-{4-[(trifluoromethyl)sulfonyl]phenoxy}benzyl)-piperazine-1-carboxamide] | 6 | 40
3 | O=C(Nc1ccc(Cl)nn1)N1CCN(Cc2cccc(Oc3ccc(Cl)c(Cl)c3)c2)CC1 [Example 43, 4-[3-(3,4-Dichloro-phenoxy)-benzyl]-piperazine-1-carboxylic acid (6-chloro-pyridazin-3-yl)-amide trifluoroacetic acid salt] | 983 | 6
4 | O=C(Nc1noc2ccccc12)N1CCN(Cc2ccc3ccccc3n2)CC1 [Example 124, 4-Quinolin-2-ylmethyl-piperazine-1-carboxylic acid benzo[d]isoxazol-3-ylamide] | 55 | 200
5 | O=C(Nc1noc2ccccc12)N1CCN(Cc2cccc(C#Cc3ccccc3C(F)(F)F)c2)CC1 [Example 64, N-1,2-Benzisoxazol-3-yl-4-(3-{[2-(trifluoromethyl)-phenyl]-ethynyl}benzyl)-piperazine-1-carboxamide] | 105 | 80
6 | N#Cc1cccc(C#Cc2cccc(CN3CCN(C(=O)Nc4noc5ccccc45)CC3)c2)c1 [Example 88, N-1,2-Benzisoxazol-3-yl-4-{3-[(3-cyanophenyl)ethynyl]benzyl}piperazine-1-carboxamide] | 15 | 65
7 | O=C(Nc1nnn[nH]1)N1CCN(Cc2cccc(Oc3cccc(OC(F)(F)F)c3)c2)CC1 [Example 173, N-1H-Tetrazol-5-yl-4-{3-[3-(trifluoromethoxy)phenoxy]benzyl}piperazine-1-carboxamide] | 225 | 200
8 | O=C(Nc1nn[nH]n1)N1CCN(Cc2cccc(Oc3ccccc3)c2)CC1 [Example 181, 4-(3-Phenoxy-benzyl)-piperazine-1-carboxylic acid (2H-tetrazol-5-yl)-amide] | 5000 | 1600
9 | O=C(Nc1ccsc1)N1CCN(Cc2ccc3c(c2)OC(F)(F)O3)CC1 [Example 8, 4-(2,2-Difluoro-benzo[1,3]dioxol-5-ylmethyl)-piperazine-1-carboxylic acid thiophen-3-ylamide] | 770 | 290
10 | O=C(Nc1cnccn1)N1CCN(Cc2cccc(Oc3ccc(Br)cc3)c2)CC1 [Example 221, 4-[3-(4-Bromophenoxy)benzyl]-N-pyrazin-2-ylpiperazine-1-carboxamide] | 3 | 50
11 | O=C(Nc1noc2ccccc12)N1CCN(Cc2ccc(Cl)c(Cl)c2)CC1 [Example 111, N-1,2-Benzisoxazol-3-yl-4-(3,4-dichlorobenzyl)piperazine-1-carboxamide] | 35 | 40
12 | O=C(Nc1nn[nH]n1)N1CCN(Cc2ccc(Br)c(F)c2)CC1 [Example 168, 4-(4-Bromo-3-fluorobenzyl)-N-1H-tetrazol-5-ylpiperazine-1-carboxamide] | 1200 | 480
13 | O=C(Nc1noc2ccccc12)N1CCN(Cc2cc3ccccc3s2)CC1 [Example 113, N-1,2-Benzisoxazol-3-yl-4-(1-benzothiophen-2-ylmethyl)piperazine-1-carboxamide] | 20 | 30
14 | O=C(Nc1noc2ccccc12)N1CCN(Cc2ccc3nc[nH]c3c2)CC1 [Example 100, 4-(1H-Benzimidazol-6-ylmethyl)-N-1,2-benzisoxazol-3-ylpiperazine-1-carboxamide] | > 10000 | > 10000
15 | O=C(Nc1ccn[nH]1)N1CCC(Cc2ccc3ccccc3c2)CC1 [Example 14, 4-Naphthalen-2-ylmethyl-piperidine-1-carboxylic acid (2H-pyrazol-3-yl)-amide] | 218 | 63
16 | O=C(Nc1noc2ccccc12)N1CCC(Cc2ccc3c(c2)OC(F)(F)O3)CC1 [Example 62, N-1,2-Benzisoxazol-3-yl-4-[(2,2-difluoro-1,3-benzodioxol-5-yl)methyl]piperidine-1-carboxamide] | 41 | 35
17 | O=C(Nc1noc2ccccc12)N1CCN(Cc2cccc(C#Cc3cccc4ccccc34)c2)CC1 [Example 86, N-1,2-Benzisoxazol-3-yl-4-[3-(naphthalen-1-ylethynyl)benzyl]piperazine-1-carboxamide] | 3000 | 580
18 | O=C(Nc1ccc(Cl)nn1)N1CCN(Cc2cccc(Oc3cccc(C(F)(F)F)c3)c2)CC1 [Example 44, 4-[3-(3-Trifluoromethyl-phenoxy)-benzyl]-piperazine-1-carboxylic acid (6-chloro-pyridazin-3-yl)-amide trifluoroacetic acid salt] | 643 | 46
19 | O=C(Nc1ccc(Cl)nn1)N1CCN(Cc2cccc(Oc3ccc(Cl)cc3)c2)CC1 [Example 42, 4-[3-(4-Chloro-phenoxy)-benzyl]-piperazine-1-carboxylic acid (6-chloro-pyridazin-3-yl)-amide trifluoroacetic acid salt] | 311 | 18
20 | O=C(Nc1cnccn1)N1CCC(Cc2ccc3ccccc3c2)CC1 [Example 10, 4-Naphthalen-2-ylmethyl-piperidine-1-carboxylic acid pyrazin-2-ylamide trifluoroacetic acid salt] | 244 | 36
21 | O=C(Nc1ccon1)N1CCN(Cc2ccc(F)c(Oc3ccccc3)c2)CC1 [Example 49, 4-(4-Fluoro-3-phenoxy-benzyl)-piperazine-1-carboxylic acid isoxazol-3-ylamide trifluoroacetic acid salt] | 2000 | 360
22 | O=C(Nc1ccon1)N1CCN(Cc2cc3ccccc3o2)CC1 [Example 138, 4-(1-Benzofuran-2-ylmethyl)-N-isoxazol-3-ylpiperazine-1-carboxamide] | 5000 | > 10000
23 | O=C(Nc1cnccn1)N1CCN(Cc2cccc(Oc3ccc4ncccc4c3)c2)CC1 [Example 232, N-Pyrazin-2-yl-4-[3-(quinolin-6-yloxy)benzyl]piperazine-1-carboxamide] | 40 | 240
24 | O=C(Nc1cccc2nsnc12)N1CCN(Cc2cccc(C#Cc3ccccc3)c2)CC1 [Example 202, N-2,1,3-Benzothiadiazol-4-yl-4-{[3-(phenylethynyl)phenyl]methyl}-piperazine-1-carboxamide] | 45 | 85
25 | O=C(Nc1cnccn1)N1CCN(Cc2cccc(C#Cc3ccccc3Cl)c2)CC1 [Example 78, 4-{3-[(2-Chlorophenyl)ethynyl]benzyl}-N-pyrazin-2-ylpiperazine-1-carboxamide hydrochloride salt] | 59 | 410
26 | O=C(Nc1nnn[nH]1)N1CCC(Cc2ccc3ccccc3c2)CC1 [Example 13, 4-Naphthalen-2-ylmethyl-piperidine-1-carboxylic acid (1H-tetrazol-5-yl)-amide] | 5 | 87
27 | O=C(Nc1nc(-c2ccccc2)ns1)N1CCC(Cc2ccc3ccccc3c2)CC1 [Example 12, 4-Naphthalen-2-ylmethyl-piperidine-1-carboxylic acid (3-phenyl-[1,2,4]thiadiazol-5-yl)-amide] | 5000 | 3000
28 | O=C(Nc1cnccn1)N1CCN(Cc2cc3ccccc3s2)CC1 [Example 218, 4-(1-Benzothiophen-2-ylmethyl)-N-pyrazin-2-ylpiperazine-1-carboxamide] | 170 | 700
